Assay [1] has as its target recombinant protein Wee-1 (Homo sapiens (Human), UniProt P30291). Briefly: HTRF assay for inhibiting enzymatic activity of recombinant protein Wee-1. The assay is classed as biochemical. The settings on record: compounds up to 200 nM, read-out: (IC50) Inhibitory activity against recombinant protein Wee-1. As for the experimental part:
The inhibitory effect of the compounds on the enzyme activity of recombinant protein Wee-1 was determined by HTRF. The procedures are as follows:
After DMSO or serially diluted compounds (up to 200 nM, 1:5 diluted) and recombinant proteins were co-incubated in a kinase buffer at 37° C. for 30 min before Fluorescein-PolyGAT and ATP were added, and the reaction was initiated by addition of a substrate. After incubation at room temperature for 90 min, an antibody and a detection solution were added, and after further incubation at room temperature for 60 min, fluorescence values were detected (excitation wavelength: 340 nm, emission wavelengths: 495 and 520 nm). The 520 nm/495 nm fluorescence intensity ratio value was calculated, and compared with that of the DMSO group, and then the inhibition percentages and IC50 values of the compounds were calculated.

The next assay deals with MIA PaCa-2 cells. Description: In-vitro anti-proliferative activity in combination with gemcitabine on MIA PaCa-2 cells. The assay is classed as cell-based. The following applies: 72 h. The protocol:
MIA PaCa-2 cells were seeded on a 384-well plate at 3000 cells/well, and 20 nM or 200 nM gemcitabine (GMC) was added. After overnight adherence culture, DMSO or the compounds serially 1:5-diluted from 100 nM were added. The viability was assessed 72 h after dosing by measuring the intracellular ATP content. The inhibition percentage of viable cells by the compounds was calculated by comparing with the DMSO group, and the IC50 value was calculated.

Where [2] appears, read: with 20 nM gemcitabine, read-out: in combination with 20 nM GMC IC50.
Setting [3] is: with 200 nM gemcitabine, read-out: in combination with 200 nM GMC IC50.

Where two headings read alike, the source gives them in different places.

recombinant protein Wee-1, sequence (P30291 whole entry): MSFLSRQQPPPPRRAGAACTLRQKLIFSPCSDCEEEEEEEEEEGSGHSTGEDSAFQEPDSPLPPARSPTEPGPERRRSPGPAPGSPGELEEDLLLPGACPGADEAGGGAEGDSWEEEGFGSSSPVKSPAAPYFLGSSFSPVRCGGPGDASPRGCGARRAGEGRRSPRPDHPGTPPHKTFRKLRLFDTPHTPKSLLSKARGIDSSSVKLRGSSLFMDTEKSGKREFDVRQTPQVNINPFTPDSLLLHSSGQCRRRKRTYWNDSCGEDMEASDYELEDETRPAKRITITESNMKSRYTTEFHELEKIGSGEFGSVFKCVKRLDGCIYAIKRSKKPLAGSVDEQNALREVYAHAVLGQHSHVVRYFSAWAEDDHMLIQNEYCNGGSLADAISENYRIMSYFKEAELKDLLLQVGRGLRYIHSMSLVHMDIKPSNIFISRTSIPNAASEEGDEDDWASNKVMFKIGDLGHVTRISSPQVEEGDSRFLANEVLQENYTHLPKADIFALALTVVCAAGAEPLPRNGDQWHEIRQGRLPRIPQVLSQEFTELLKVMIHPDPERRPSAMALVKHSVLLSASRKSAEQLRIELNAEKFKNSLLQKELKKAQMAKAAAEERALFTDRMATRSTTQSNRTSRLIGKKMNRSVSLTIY

`CN1CCc2ccc(Nc3ncc(S(C)(=O)=O)c(Nc4cccc(N=S(C)(C)=O)n4)n3)cc2C1` [Compound 5]: the 50% inhibitory concentration (IC50) (usually the point on the concentration scale where inhibition reaches its midpoint) is above 50 nM in assay [1] and above 100 nM with MIA PaCa-2 cells (setting [2]). With `CN1CCc2ccc(Nc3ncc(C(N)=O)c(Nc4cccc(N=S(C)(C)=O)n4)n3)cc2C1` [Compound 6], the IC50 in assay [1] was above 50 nM; in the assay with MIA PaCa-2 cells (setting [2]) it was above 100 nM. For `CNC(=O)c1cnc(Nc2ccc3c(c2)CN(C)CC3)nc1Nc1cccc(N=S(C)(C)=O)n1` [Compound 7], the IC50 in assay [1] was above 50 nM; in the assay with MIA PaCa-2 cells (setting [2]), above 100 nM.

Turning to `CN1CCc2ccc(Nc3ncc(C(=O)N(C)C)c(Nc4cccc(N=S(C)(C)=O)n4)n3)cc2C1` [Compound 8], the 50% inhibitory concentration (IC50) was above 50 nM in assay [1] and above 100 nM in the assay with MIA PaCa-2 cells (setting [2]). The corresponding values for `CN1CCc2ccc(Nc3ncc(-c4ccco4)c(Nc4cccc(N=S(C)(C)=O)n4)n3)cc2C1` [Compound 9] are above 50 nM and above 100 nM.

Take `CN1CCc2ccc(Nc3ncc(-c4cn[nH]c4)c(Nc4cccc(N=S(C)(C)=O)n4)n3)cc2C1` [Compound 10]: the IC50 was above 50 nM in assay [1] and above 100 nM with MIA PaCa-2 cells (setting [2]). On to `CN1CCc2ccc(Nc3ncc(Br)c(Nc4cccc(N=S(C)(C)=O)n4)n3)cc2C1` [Compound 11], for which the values for the 50% inhibitory concentration (IC50) (in assay [1]; in the assay on MIA PaCa-2 cells (setting [2])) were at most 10 nM and 16 nM, respectively.

Turning to `Cc1cc(Nc2ncc(C#N)c(Nc3cccc(N=S(C)(C)=O)n3)n2)cc2c1CCN(C)C2` [Compound 12], the IC50 in assay [1] is at most 10 nM; in the assay with MIA PaCa-2 cells (setting [2]), 1.4 nM. On to `C=C(C)c1cc(Nc2ncc(C#N)c(Nc3cccc(N=S(C)(C)=O)n3)n2)cc2c1CCN(C)C2` [Compound 15], for which the half-inhibitory concentration (IC50) in assay [1] was at most 10 nM; in the assay on MIA PaCa-2 cells (setting [2]), 1.8 nM. On the same counts, the results for `CN1CCc2c(cc(Nc3ncc(C#N)c(Nc4cccc(N=S(C)(C)=O)n4)n3)cc2C2=CCCC2)C1` [Compound 17] are at most 10 nM and 11 nM.

On to `CN1CCc2c(cc(Nc3ncc(C#N)c(Nc4cccc(N=S(C)(C)=O)n4)n3)cc2N2CCCC2)C1` [Compound 19], for which the figures for the IC50 (in assay [1]; with MIA PaCa-2 cells (setting [3])) were at most 10 nM and 640 nM, respectively. Consider `CN1CCc2c(cc(Nc3ncc(C#N)c(Nc4cccc(N=S(C)(C)=O)n4)n3)cc2C(F)(F)F)C1` [Compound 20], for which the 50% inhibitory concentration (IC50) in assay [1] was at most 10 nM; in the assay with MIA PaCa-2 cells (setting [2]), 25 nM. On to `COc1cc(Nc2ncc(C#N)c(Nc3cccc(N=S(C)(C)=O)n3)n2)cc2c1CCN(C)C2` [Compound 22], for which the results for the IC50 (in assay [1]; in the assay on MIA PaCa-2 cells (setting [3])) were at most 10 nM and 1.2 nM, respectively. As to `CN1CCc2c(F)cc(Nc3ncc(C#N)c(Nc4cccc(N=S(C)(C)=O)n4)n3)cc2C1` [Compound 25], the IC50 in assay [1] is at most 10 nM; with MIA PaCa-2 cells (setting [2]), 18.6 nM. Take `CN1CCc2c(I)cc(Nc3ncc(C#N)c(Nc4cccc(N=S(C)(C)=O)n4)n3)cc2C1` [Compound 28]: the concentration for half-maximal inhibition (IC50) in assay [1] is at most 10 nM; with MIA PaCa-2 cells (setting [2]) it was 14.5 nM. Consider `CN1Cc2cc(Nc3ncc(C#N)c(Nc4cccc(N=S(C)(C)=O)n4)n3)ccc2C2(CC2)C1` [Compound 29], for which the IC50 in assay [1] is at most 10 nM; in the assay on MIA PaCa-2 cells (setting [2]), 3.7 nM.

`CN1CCc2c(C#N)cc(Nc3ncc(C#N)c(Nc4cccc(N=S(C)(C)=O)n4)n3)cc2C1` [Compound 41]: the 50% inhibitory concentration (IC50) is 10 to 50 nM in assay [1] and above 100 nM in the assay with MIA PaCa-2 cells (setting [3]). For `C=Cc1cc(Nc2ncc(C#N)c(Nc3cccc(N=S(C)(C)=O)n3)n2)cc2c1CCN(C)C2` [Compound 42], the 50% inhibitory concentration (IC50) in assay [1] is at most 10 nM; in the assay with MIA PaCa-2 cells (setting [3]), 10 nM.

For `C#Cc1cc(Nc2ncc(C#N)c(Nc3cccc(N=S(C)(C)=O)n3)n2)cc2c1CCN(C)C2` [Compound 43], the half-inhibitory concentration (IC50) in assay [1] was at most 10 nM; with MIA PaCa-2 cells (setting [2]) it was 21.2 nM. In the case of `CN(C)C1CCc2ccc(Nc3ncc(C#N)c(Nc4cccc(N=S(C)(C)=O)n4)n3)cc2CC1` (stereo not drawn) [Compound 52], the IC50 in assay [1] is at most 10 nM; in the assay on MIA PaCa-2 cells (setting [2]), 4.5 nM. Regarding `CN1CCc2ccc(Nc3ncc(C#N)c(Nc4cccc(N=S(C)(C)=O)n4)n3)cc2CC1` [Compound 55], the values for the half-maximal inhibitory concentration (IC50) (in assay [1]; with MIA PaCa-2 cells (setting [2])) were at most 10 nM and 11.3 nM, respectively. For `CN(C)C1Cc2ccc(Nc3ncc(C#N)c(Nc4cccc(N=S(C)(C)=O)n4)n3)cc2C1` (stereo not drawn) [Compound 60], the 50% inhibitory concentration (IC50) was at most 10 nM in assay [1] and 10.3 nM with MIA PaCa-2 cells (setting [2]). The corresponding values for `CN1CCN(c2ccc(Nc3ncc(C#N)c(Nc4cccc(N=S(C)(C)=O)n4)n3)cc2)CC1` [Compound 61] are at most 10 nM and 7.5 nM. In the case of `CN1CCC(N2CCN(c3ccc(Nc4ncc(C#N)c(Nc5cccc(N=S(C)(C)=O)n5)n4)cc3)CC2)CC1` [Compound 62], the IC50 in assay [1] was at most 10 nM; in the assay on MIA PaCa-2 cells (setting [2]) it was 12.5 nM. The corresponding values for `CN1CCN(c2cccc(Nc3ncc(C#N)c(Nc4cccc(N=S(C)(C)=O)n4)n3)c2)CC1` [Compound 63] are at most 10 nM and 18.4 nM. On the same counts, the results for `CN1CCc2ccc(Nc3ncc(C#N)c(Nc4cccc(N=S(C)(C)=O)c4)n3)cc2C1` [Compound 64] are at most 10 nM and 34 nM. For the compound `CN1CCc2ccc(Nc3ncc(C#N)c(N4CCc5c(N=S(C)(C)=O)cccc54)n3)cc2C1` [Compound 77], the 50% inhibitory concentration (IC50) in assay [1] is at most 10 nM; in the assay on MIA PaCa-2 cells (setting [3]) it was above 100 nM. With `CN1CCc2ccc(Nc3ncc(C#N)c(-c4c[nH]c5c(N=S(C)(C)=O)cccc45)n3)cc2C1` [Compound 78], the IC50 is at most 10 nM in assay [1] and above 100 nM in the assay with MIA PaCa-2 cells (setting [2]). In the case of `CN1CCc2ccc(Nc3ncc(C#N)c(-c4cn(C)c5c(N=S(C)(C)=O)cccc45)n3)cc2C1` [Compound 79], the IC50 in assay [1] is at most 10 nM; with MIA PaCa-2 cells (setting [3]), above 100 nM.

For `CN1CCc2ccc(Nc3ncc(C#N)c(-n4cnc5c(N=S(C)(C)=O)cccc54)n3)cc2C1` [Compound 80], the half-inhibitory concentration (IC50) in assay [1] was 10 to 50 nM; in the assay with MIA PaCa-2 cells (setting [3]), above 100 nM. Take `C=Cc1cc(N=S(C)(C)=O)nc(Nc2nc(Nc3ccc4c(c3)CN(C)CC4)ncc2C#N)c1` [Compound 85]: the 50% inhibitory concentration (IC50) in assay [1] is at most 10 nM; in the assay with MIA PaCa-2 cells (setting [3]) it was above 100 nM.

Take `CN1CCc2ccc(Nc3ncc(I)c(Nc4cccc(N=S(C)(C)=O)n4)n3)cc2C1` [Compound 105]: the 50% inhibitory concentration (IC50) in assay [1] was at most 10 nM; in the assay on MIA PaCa-2 cells (setting [2]) it was 26.5 nM. For the compound `CN1CCc2ccc(Nc3ncc(C#N)c(Oc4cccc(N=S(C)(C)=O)n4)n3)cc2C1` [Compound 106], the values for the IC50 (in assay [1]; with MIA PaCa-2 cells (setting [2])) were at most 10 nM and above 100 nM, respectively.

As to `C#Cc1cnc(Nc2ccc3c(c2)CN(C)CC3)nc1Nc1cccc(N=S(C)(C)=O)n1` [Compound 107], the IC50 in assay [1] was at most 10 nM; with MIA PaCa-2 cells (setting [2]), 26.6 nM. The corresponding values for `CN1CCc2ccc(Nc3ncc(-c4ccc(F)nc4)c(Nc4cccc(N=S(C)(C)=O)n4)n3)cc2C1` [Compound 108] are 10 to 50 nM and above 100 nM. Regarding `CN1CCc2c(CCO)cc(Nc3ncc(C#N)c(Nc4cccc(N=S(C)(C)=O)n4)n3)cc2C1` [Compound 132], the IC50 in assay [1] was at most 10 nM. The same measure, in the same setting: the value for `CN1CCc2c(CN)cc(Nc3ncc(C#N)c(Nc4cccc(N=S(C)(C)=O)n4)n3)cc2C1` [Compound 134] was at most 10 nM; that for `CN1CCc2c(CCN)cc(Nc3ncc(C#N)c(Nc4cccc(N=S(C)(C)=O)n4)n3)cc2C1` [Compound 135] was at most 10 nM. Still for that read-out and setting: the value for `CN1CCc2c(CCCN)cc(Nc3ncc(C#N)c(Nc4cccc(N=S(C)(C)=O)n4)n3)cc2C1` [Compound 136] was at most 10 nM; that for `CN1CCc2c(cc(Nc3ncc(C#N)c(Nc4cncc(N=S(C)(C)=O)n4)n3)cc2C2CC2)C1` [Compound 138] was at most 10 nM; that for `CN1CCc2c(cc(Nc3ncc(C#N)c(Nc4nccc(N=S(C)(C)=O)n4)n3)cc2C2CC2)C1` [Compound 139] was at most 10 nM. Consider `CN1CCc2c(cc(Nc3ncc(C#N)c(Nc4ccnc(N=S(C)(C)=O)n4)n3)cc2C2CC2)C1` [Compound 140], for which, in assay [1], the IC50 is at most 10 nM.

For `CCc1cc(Nc2ncc(C#N)c(Nc3cccc(N=S(C)(C)=O)n3)n2)cc2c1CCN(CC)C2` [Compound 141], in assay [1], the IC50 is at most 10 nM. Still for that read-out and setting: the value for `CCc1cc(Nc2ncc(C#N)c(Nc3cncc(N=S(C)(C)=O)n3)n2)cc2c1CCN(C)C2` [Compound 142] was at most 10 nM; that for `CCc1cc(Nc2ncc(C#N)c(Nc3nccc(N=S(C)(C)=O)n3)n2)cc2c1CCN(C)C2` [Compound 143] was at most 10 nM; that for `CCc1cc(Nc2ncc(C#N)c(Nc3ccnc(N=S(C)(C)=O)n3)n2)cc2c1CCN(C)C2` [Compound 144] was at most 10 nM. For `CCCc1cc(Nc2ncc(C#N)c(Nc3cccc(N=S(C)(C)=O)n3)n2)cc2c1CCN(C)C2` [Compound 149], in assay [1], the 50% inhibitory concentration (IC50) was at most 10 nM. On the same count and under the same terms, the value for `CCc1cc(Nc2ncc(C#N)c(Nc3cccc(N=S(C)(C)=O)n3)n2)cc2c1CCNC2` [Compound 151] was at most 10 nM. With `CCc1cc(Nc2ncc(C#N)c(Nc3cccc(N=S(C)(=O)CC)n3)n2)cc2c1CCN(C)C2` (stereo not drawn) [Compound 157], the IC50 in assay [1] was at most 10 nM.

Take `CCc1cc(Nc2ncc(C#N)c(Nc3cccc(N=S(=O)(CC)CC)n3)n2)cc2c1CCN(C)C2` [Compound 158]: in assay [1], the IC50 was at most 10 nM.

As for `CCc1cc(Nc2ncc(C#N)c(Nc3cccc(N=S4(=O)CCC4)n3)n2)cc2c1CCN(C)C2` [Compound 159], the concentration for half-maximal inhibition (IC50) in assay [1] was at most 10 nM. On the same count and under the same terms, the value for `CCc1cc(Nc2ncc(C#N)c(Nc3cccc(N=S4(=O)CCCC4)n3)n2)cc2c1CCN(C)C2` [Compound 160] was at most 10 nM.
